Test results published in patent US5672715A, “Herbicidal substituted 3-aryl-pyrazoles” (Monsanto Company, priority 1995, dated 1997).
Read-outs that look alike come from different tables or passages of the source.

Legend:
Assay type in all cases: in vivo
Yellow Foxtail [1] = test: post-emergence herbicide test; settings: Setaria, read-out: % plant inhibition
In short: (§1)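 Two- to three-week-old plants, greenhouse-grown in compacted topsoil, received candidate chemical by atomizer spray at 1870 L/Ha. Scored as percent inhibition.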

Wheat = test: post-emergence herbicide test; settings: Triticum aestivum, post-emergence, read-out: % plant inhibition
In short: as §1

Blackgrass = test: post-emergence herbicide test; settings: Alopecurus myosuroides, post-emergence, read-out: % plant inhibition; for inhibition at 7.95803 g/ha: 0.0071 lb/A; for inhibition at 40.0143 g/ha: 0.0357 lb/A; for inhibition at 200.072 g/ha: 0.1785 lb/A; for inhibition at 1000.92 g/ha: 0.893 lb/A
In short: as §1

Velvetleaf [2] = test: post-emergence herbicide test; settings: Abutilon theophrasti, post-emergence, read-out: % plant inhibition
In short: as §1

Corn [3] = test: post-emergence herbicide test; settings: Zea mays, post-emergence, read-out: % plant inhibition
In short: as §1

Soybean [4] = test: post-emergence herbicide test; settings: Glycine max, post-emergence, read-out: % plant inhibition
In short: as §1

Barnyardgrass [5] = test: post-emergence herbicide test; settings: Echinochloa crus-galli, post-emergence, read-out: % plant inhibition
In short: as §1

Yellow Foxtail [6] = test: pre-emergence herbicide test; settings: Setaria, read-out: % plant inhibition
In short: (§2)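 Greenhouse pan assay in which seeds lie under a treated topsoil cover; carrier was acetone or water. Inhibition (%) was recorded about 14 days post-treatment.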

Velvetleaf [7] = test: pre-emergence herbicide test; settings: Abutilon theophrasti, pre-emergence, read-out: % plant inhibition
In short: as §2

Morning Glory = test: pre-emergence herbicide test; settings: Ipomoea, pre-emergence, read-out: % plant inhibition
In short: as §2

Corn [8] = test: pre-emergence herbicide test; settings: Zea mays, pre-emergence, read-out: % plant inhibition
In short: as §2

Yellow Nutsedge = test: pre-emergence herbicide test; settings: Cyperus, read-out: % plant inhibition
In short: as §2

Soybean [9] = test: pre-emergence herbicide test; settings: Glycine max, pre-emergence, read-out: % plant inhibition
In short: as §2

Rice = test: pre-emergence herbicide test; settings: Oryza sativa, read-out: % plant inhibition
In short: as §2

Barnyardgrass [10] = test: pre-emergence herbicide test; settings: Echinochloa crus-galli, pre-emergence, read-out: % plant inhibition
In short: as §2

Cocklebur = test: pre-emergence herbicide test; settings: Xanthium strumarium, pre-emergence, read-out: % plant inhibition
In short: as §2

SMILES: C#CCOc1cc(-c2nn(C)c(C(F)(F)F)c2C)c(F)cc1Cl [Compound 39]
- inhibition at 7.95803 g/ha (Yellow Foxtail [1]; 0.0071 lb/A): 65%
- inhibition at 40.0143 g/ha (Yellow Foxtail [1]; 0.0357 lb/A): 100%
- inhibition at 200.072 g/ha (Yellow Foxtail [1]; 0.1785 lb/A): 100%
- inhibition at 1000.92 g/ha (Yellow Foxtail [1]; 0.893 lb/A): 100%
- inhibition at 7.95803 g/ha (Wheat; 0.0071 lb/A): 0%
- inhibition at 40.0143 g/ha (Wheat; 0.0357 lb/A): 0%
- inhibition at 200.072 g/ha (Wheat; 0.1785 lb/A): 15%
- inhibition at 1000.92 g/ha (Wheat; 0.893 lb/A): 75%
- inhibition at 7.95803 g/ha (Blackgrass; Table 4a): 10%
- inhibition at 7.95803 g/ha (Blackgrass; Table 5a): 0%
- inhibition at 40.0143 g/ha (Blackgrass; Table 4a): 35%
- inhibition at 40.0143 g/ha (Blackgrass; Table 5a): 80%
- inhibition at 200.072 g/ha (Blackgrass; Table 4a): 25%
- inhibition at 200.072 g/ha (Blackgrass; Table 5a): 95%
- inhibition at 1000.92 g/ha (Blackgrass; Table 4a): 70%
- inhibition at 1000.92 g/ha (Blackgrass; Table 5a): 100%
- inhibition at 7.95803 g/ha (Velvetleaf [2]; 0.0071 lb/A): 75%
- inhibition at 40.0143 g/ha (Velvetleaf [2]; 0.0357 lb/A): 100%
- inhibition at 200.072 g/ha (Velvetleaf [2]; 0.1785 lb/A): 100%
- inhibition at 1000.92 g/ha (Velvetleaf [2]; 0.893 lb/A): 100%
- inhibition at 7.95803 g/ha (Corn [3]; 0.0071 lb/A): 50%
- inhibition at 40.0143 g/ha (Corn [3]; 0.0357 lb/A): 30%
- inhibition at 200.072 g/ha (Corn [3]; 0.1785 lb/A): 100%
- inhibition at 1000.92 g/ha (Corn [3]; 0.893 lb/A): 95%
- inhibition at 7.95803 g/ha (Soybean [4]; 0.0071 lb/A): 25%
- inhibition at 40.0143 g/ha (Soybean [4]; 0.0357 lb/A): 70%
- inhibition at 200.072 g/ha (Soybean [4]; 0.1785 lb/A): 70%
- inhibition at 1000.92 g/ha (Soybean [4]; 0.893 lb/A): 100%
- inhibition at 7.95803 g/ha (Barnyardgrass [5]; 0.0071 lb/A): 30%
- inhibition at 40.0143 g/ha (Barnyardgrass [5]; 0.0357 lb/A): 70%
- inhibition at 200.072 g/ha (Barnyardgrass [5]; 0.1785 lb/A): 98%
- inhibition at 1000.92 g/ha (Barnyardgrass [5]; 0.893 lb/A): 98%
- inhibition at 7.95803 g/ha (Yellow Foxtail [6]; 0.0071 lb/A): 95%
- inhibition at 40.0143 g/ha (Yellow Foxtail [6]; 0.0357 lb/A): 100%
- inhibition at 200.072 g/ha (Yellow Foxtail [6]; 0.1785 lb/A): 100%
- inhibition at 280.212 g/ha (Yellow Foxtail [6]; 0.25 lb/A): 100%
- inhibition at 1000.92 g/ha (Yellow Foxtail [6]; 0.893 lb/A): 100%
- inhibition at 7.95803 g/ha (Velvetleaf [7]; 0.0071 lb/A): 100%
- inhibition at 40.0143 g/ha (Velvetleaf [7]; 0.0357 lb/A): 100%
- inhibition at 200.072 g/ha (Velvetleaf [7]; 0.1785 lb/A): 100%
- inhibition at 1000.92 g/ha (Velvetleaf [7]; 0.893 lb/A): 100%
- inhibition at 7.95803 g/ha (Morning Glory; 0.0071 lb/A): 70%
- inhibition at 40.0143 g/ha (Morning Glory; 0.0357 lb/A): 85%
- inhibition at 200.072 g/ha (Morning Glory; 0.1785 lb/A): 100%
- inhibition at 1000.92 g/ha (Morning Glory; 0.893 lb/A): 100%
- inhibition at 7.95803 g/ha (Corn [8]; 0.0071 lb/A): 10%
- inhibition at 40.0143 g/ha (Corn [8]; 0.0357 lb/A): 80%
- inhibition at 200.072 g/ha (Corn [8]; 0.1785 lb/A): 95%
- inhibition at 280.212 g/ha (Corn [8]; 0.25 lb/A): 100%
- inhibition at 1000.92 g/ha (Corn [8]; 0.893 lb/A): 100%
- inhibition at 7.95803 g/ha (Yellow Nutsedge; 0.0071 lb/A): 70%
- inhibition at 40.0143 g/ha (Yellow Nutsedge; 0.0357 lb/A): 25%
- inhibition at 200.072 g/ha (Yellow Nutsedge; 0.1785 lb/A): 55%
- inhibition at 1000.92 g/ha (Yellow Nutsedge; 0.893 lb/A): 65%
- inhibition at 7.95803 g/ha (Soybean [9]; 0.0071 lb/A): 0%
- inhibition at 40.0143 g/ha (Soybean [9]; 0.0357 lb/A): 100%
- inhibition at 200.072 g/ha (Soybean [9]; 0.1785 lb/A): 95%
- inhibition at 280.212 g/ha (Soybean [9]; 0.25 lb/A): 95%
- inhibition at 1000.92 g/ha (Soybean [9]; 0.893 lb/A): 100%
- inhibition at 7.95803 g/ha (Rice; 0.0071 lb/A): 65%
- inhibition at 40.0143 g/ha (Rice; 0.0357 lb/A): 70%
- inhibition at 200.072 g/ha (Rice; 0.1785 lb/A): 85%
- inhibition at 1000.92 g/ha (Rice; 0.893 lb/A): 100%
- inhibition at 7.95803 g/ha (Barnyardgrass [10]; 0.0071 lb/A): 80%
- inhibition at 40.0143 g/ha (Barnyardgrass [10]; 0.0357 lb/A): 100%
- inhibition at 200.072 g/ha (Barnyardgrass [10]; 0.1785 lb/A): 100%
- inhibition at 280.212 g/ha (Barnyardgrass [10]; 0.25 lb/A): 100%
- inhibition at 1000.92 g/ha (Barnyardgrass [10]; 0.893 lb/A): 100%
- inhibition at 7.95803 g/ha (Cocklebur; 0.0071 lb/A): 50%
- inhibition at 40.0143 g/ha (Cocklebur; 0.0357 lb/A): 80%
- inhibition at 200.072 g/ha (Cocklebur; 0.1785 lb/A): 95%
- inhibition at 1000.92 g/ha (Cocklebur; 0.893 lb/A): 100%
